One may read the Ki as a measure of affinity in units of concentration, obtained from inhibition or displacement. Read a low Ki as a stronger hold on the target.

The values that follow come from patent US20070140979A1, “Method for accelerating the rate of mucociliary clearance” (BAYER AKTIENGESELLSCHAFT, priority 1998, published 2007).

The target in the assay is Bovine chymotrypsin (Bos taurus, UniProt P00766). The assay is described as follows: Inhibition of chymotrypsin, Ki. In kind it is biochemical. As to conditions: Chymotrypsin (5 nM).

Compound `CC[C@H](C)[C@H](N)C(=O)N[C@@H](Cc1c[nH]cn1)C(=O)N[C@@H](CC(=O)O)C(=O)N[C@@H](Cc1ccccc1)C(=O)N[C@H]1CSSC[C@@H](C(=O)N[C@@H](C)C(=O)N[C@H](C(=O)N[C@H](C(=O)O)C(C)C)[C@@H](C)O)NC(=O)[C@H](CCCCN)NC(=O)[C@H](CCCCN)NC(=O)[C@H](CC(C)C)NC(=O)[C@@H]2CSSC[C@@H]3NC(=O)[C@H](CO)NC(=O)CNC(=O)[C@H](CC(=O)O)NC(=O)[C@H]([C@@H](C)O)NC(=O)[C@H](C(C)C)NC(=O)[C@H](CC(N)=O)NC(=O)[C@H](Cc4ccc(O)cc4)NC(=O)[C@H](Cc4c[nH]c5ccccc45)NC(=O)[C@H](Cc4c[nH]c5ccccc45)NC(=O)[C@H](CCCNC(=N)N)NC(=O)[C@@H]4CCCN4C(=O)[C@H](CCSC)NC(=O)[C@H](CO)NC(=O)[C@H](C)NC(=O)[C@H](CCCNC(=N)N)NC(=O)[C@H](CSSC[C@H](NC(=O)CNC(=O)CNC(=O)[C@H](Cc4ccc(O)cc4)NC(=O)[C@H](C(C)C)NC(=O)[C@H](Cc4ccccc4)NC(=O)[C@H](CC(C)C)NC(=O)[C@H](CCC(N)=O)NC3=O)C(=O)N[C@@H](CC(=O)O)C(=O)NCC(=O)N[C@@H](CC(N)=O)C(=O)N[C@@H](CO)C(=O)N[C@@H](CC(N)=O)C(=O)N[C@@H](CC(N)=O)C(=O)N[C@@H](Cc3ccc(O)cc3)C(=O)N[C@@H](CC(C)C)C(=O)N[C@@H]([C@@H](C)O)C(=O)N[C@@H](CCCCN)C(=O)N[C@@H](CCC(=O)O)C(=O)N[C@@H](CCC(=O)O)C(=O)N2)NC(=O)[C@H](CCCNC(=N)N)NC(=O)CNC(=O)[C@H](C(C)C)NC(=O)[C@H](C(C)C)NC(=O)[C@H](CCCCN)NC(=O)[C@H](CO)NC(=O)[C@H](C(C)C)NC(=O)[C@H](CC(C)C)NC1=O` [bikunin (7-64)] gave a Ki of 6 nM.
